Laboratory results: patent publication US20250171437A1 (Agios Pharmaceuticals,Inc., priority 2022, published 2025)

target: T1, human PAH with the R408W mutation (A375 R408W cells) (Homo sapiens, UniProt P00439, R408W); assay: Cell Based Phenylalanine Flux Assay; settings: A375 R408W cells; 24 hrs with compound, then 20 μM sepiapterin and 800 μM 13C9,15N-Phenylalanine for 4 hours; 13C-Tyrosine by LC-MS; average where tested multiple times
T1 construct: expressed in transfected cells
T1 sequence (P00439 1-452 R408W): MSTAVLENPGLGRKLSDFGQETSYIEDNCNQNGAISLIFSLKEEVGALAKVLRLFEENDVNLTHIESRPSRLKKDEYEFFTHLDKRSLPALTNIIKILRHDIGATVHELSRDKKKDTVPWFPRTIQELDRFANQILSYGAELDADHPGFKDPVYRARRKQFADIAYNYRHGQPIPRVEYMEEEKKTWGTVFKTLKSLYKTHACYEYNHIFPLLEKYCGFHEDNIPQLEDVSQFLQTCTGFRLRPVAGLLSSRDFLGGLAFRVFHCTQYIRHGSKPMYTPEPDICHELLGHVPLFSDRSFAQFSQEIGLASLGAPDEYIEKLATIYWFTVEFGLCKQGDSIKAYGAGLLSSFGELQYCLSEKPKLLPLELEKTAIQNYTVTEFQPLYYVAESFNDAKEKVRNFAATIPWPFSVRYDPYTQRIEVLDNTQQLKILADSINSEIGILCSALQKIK
Method in brief: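 AC50 is derived from LC-MS of 13C-tyrosine in the media after a 4 h pulse of 800 μM 13C9,15N-phenylalanine plus 20 μM sepiapterin. The A375 R408W PAH cells had received duplicate 10-point, 2-fold compound dilutions (0.5% DMSO) for 24 h beforehand.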

Question: Which AC50 does the source give for `O=C(c1ocnc1C(F)F)N1CCc2[nH]cnc2[C@H]1c1nc2cc(Br)cc(F)c2o1` [Example 573, (S)-(4-(5-bromo-7-fluorobenzo[d]oxazol-2-yl)-6,7-dihydro-1H-imidazo[4,5-c]pyridin-5(4H)-yl)(4-(difluoromethyl)oxazol-5-yl)methanone] here?
Answer: ≤ 500 nM

Question: With `COc1cccc2oc([C@H]3c4nc[nH]c4CCN3C(=O)c3nnc(-c4ccccn4)o3)nc12` [Example 623, (R)-(4-(4-methoxybenzo[d]oxazol-2-yl)-6,7-dihydro-1H-imidazo[4,5-c]pyridin-5(4H)-yl)(5-(pyridin-2-yl)-1,3,4-oxadiazol-2-yl)methanone] as the compound, how does the AC50 read?
Answer: 1000 to 5000 nM

Question: `O=C(c1ocnc1C(F)F)N1CC2(CC2)c2[nH]cnc2[C@@H]1c1nc2cccc(F)c2o1` [Example 912, (R)-(4-(difluoromethyl)oxazol-5-yl)(4′-(7-fluorobenzo[d]oxazol-2-yl)spiro[cyclopropane-1,7′-imidazo[4,5-c]pyridin]-5′(1′H,4′H,6′H)-yl)methanone] was tested. Which AC50 did it give?
Answer: 500 to 1000 nM

Question: For `O=C(c1nnc(-c2ccccn2)o1)N1CCc2[nH]cnc2[C@H]1c1nc2cc(F)ccc2o1` [Example 39, (S)-(4-(5-fluorobenzo[d]oxazol-2-yl)-6,7-dihydro-1H-imidazo[4,5-c]pyridin-5(4H)-yl)(5-(pyridin-2-yl)-1,3,4-oxadiazol-2-yl)methanone], which AC50 is on record?
Answer: 500 to 1000 nM

Question: For `Cn1ccc(-c2nnc(C(=O)N3CCc4[nH]cnc4[C@H]3c3nc4cccc(C(F)(F)F)c4o3)o2)n1` [Example 832, (S)-(5-(1-methyl-1H-pyrazol-3-yl)-1,3,4-oxadiazol-2-yl)(4-(7-(trifluoromethyl)benzo[d]oxazol-2-yl)-6,7-dihydro-1H-imidazo[4,5-c]pyridin-5(4H)-yl)methanone], which AC50 is on record?
Answer: ≤ 500 nM

Question: With `C[C@H](O)c1nc(C(F)F)c(C(=O)N2CCc3[nH]cnc3[C@@H]2c2nc3cc(F)ccc3o2)o1` [Example 158, (4-(difluoromethyl)-2-((S)-1-hydroxyethyl)oxazol-5-yl)((R)-4-(5-fluorobenzo[d]oxazol-2-yl)-6,7-dihydro-1H-imidazo[4,5-c]pyridin-5(4H)-yl)methanone] as the compound, how does the AC50 read?
Answer: 1000 to 5000 nM

Question: How did the AC50 turn out when `O=C(c1ccnn1C(F)F)N1CCc2[nH]cnc2[C@@H]1c1nc2ccc(F)c(F)c2o1` [Example 514, (R)-(4-(6,7-difluorobenzo[d]oxazol-2-yl)-6,7-dihydro-1H-imidazo[4,5-c]pyridin-5(4H)-yl)(1-(difluoromethyl)-1H-pyrazol-5-yl)methanone] was run?
Answer: 1000 to 5000 nM

Question: How did the AC50 turn out when `CC(C)(O)c1nc(C(F)F)c(C(=O)N2CCc3[nH]cnc3[C@@H]2c2nc3c(F)c(F)ccc3o2)o1` [Example 348, (R)-(4-(4,5-difluorobenzo[d]oxazol-2-yl)-6,7-dihydro-1H-imidazo[4,5-c]pyridin-5(4H)-yl)(4-(difluoromethyl)-2-(2-hydroxypropan-2-yl)oxazol-5-yl)methanone] was run?
Answer: 1000 to 5000 nM

Question: How did the AC50 turn out when `CC(C)(C)c1ncc(C(=O)N2CCc3[nH]cnc3[C@@H]2c2nc3cc(F)ccc3o2)s1` [Example 18, (R)-(2-(tert-butyl)thiazol-5-yl)(4-(5-fluorobenzo[d]oxazol-2-yl)-6,7-dihydro-1H-imidazo[4,5-c]pyridin-5(4H)-yl)methanone] was run?
Answer: 1000 to 5000 nM

Question: With `O=C(c1nnc(-c2ccn(C(F)F)n2)o1)N1CCc2[nH]cnc2[C@H]1c1nc2cc(F)ccc2o1` [Example 113, (S)-(5-(1-(difluoromethyl)-1H-pyrazol-3-yl)-1,3,4-oxadiazol-2-yl)(4-(5-fluorobenzo[d]oxazol-2-yl)-6,7-dihydro-1H-imidazo[4,5-c]pyridin-5(4H)-yl)methanone] as the compound, how does the AC50 read?
Answer: 1000 to 5000 nM

Question: `Cc1cccc2oc([C@@H]3c4nc[nH]c4CCN3C(=O)c3ocnc3C(F)F)nc12` [Example 382, (S)-(4-(difluoromethyl)oxazol-5-yl)(4-(4-methylbenzo[d]oxazol-2-yl)-6,7-dihydro-1H-imidazo[4,5-c]pyridin-5(4H)-yl)methanone] was tested. Which AC50 did it give?
Answer: ≤ 500 nM

Question: With `Cn1nc(C(F)F)cc1C(=O)N1CCc2[nH]cnc2[C@H]1c1nc2cccc(F)c2o1` [Example 733, (S)-(3-(difluoromethyl)-1-methyl-1H-pyrazol-5-yl)(4-(7-fluorobenzo[d]oxazol-2-yl)-6,7-dihydro-1H-imidazo[4,5-c]pyridin-5(4H)-yl)methanone] as the compound, how does the AC50 read?
Answer: ≤ 500 nM

Question: With `COCc1nc(C(F)F)c(C(=O)N2CCc3[nH]cnc3[C@@H]2c2nc3cc(F)ccc3o2)o1` [Example 109, (R)-(4-(difluoromethyl)-2-(methoxymethyl)oxazol-5-yl)(4-(5-fluorobenzo[d]oxazol-2-yl)-6,7-dihydro-1H-imidazo[4,5-c]pyridin-5(4H)-yl)methanone] as the compound, how does the AC50 read?
Answer: 1000 to 5000 nM

Question: With `CC(C)(F)c1nnc(C(=O)N2CCc3[nH]cnc3[C@@H]2c2nc3c(F)ccc(F)c3o2)o1` [Example 809, (R)-(4-(4,7-difluorobenzo[d]oxazol-2-yl)-6,7-dihydro-1H-imidazo[4,5-c]pyridin-5(4H)-yl)(5-(2-fluoropropan-2-yl)-1,3,4-oxadiazol-2-yl)methanone] as the compound, how does the AC50 read?
Answer: ≤ 500 nM

Question: With `Cc1ccc2c(C(=O)N3CCc4[nH]cnc4[C@@H]3c3nc4cc(F)ccc4o3)cnn2c1` [Example 20, (R)-(4-(5-fluorobenzo[d]oxazol-2-yl)-6,7-dihydro-1H-imidazo[4,5-c]pyridin-5(4H)-yl)(6-methylpyrazolo[1,5-a]pyridin-3-yl)methanone] as the compound, how does the AC50 read?
Answer: ≥ 5000 nM

Question: `O=C(c1nnc(-c2cc(C(F)(F)F)ccn2)o1)N1CCc2[nH]cnc2[C@@H]1c1nc2cc(F)ccc2o1` [Example 121, [(4R)-4-(5-fluoro-1,3-benzoxazol-2-yl)-1,4,6,7-tetrahydroimidazo[4,5-c]pyridin-5-yl]-[5-[4-(trifluoromethyl)-2-pyridyl]-1,3,4-oxadiazol-2-yl]methanone] was tested. Which AC50 did it give?
Answer: 1000 to 5000 nM

Question: With `O=C(N1CCc2[nH]cnc2[C@H]1c1nc2cc(F)ccc2o1)C1(c2cnco2)CC1` [Example 917, (S)-(4-(5-fluorobenzo[d]oxazol-2-yl)-6,7-dihydro-1H-imidazo[4,5-c]pyridin-5(4H)-yl)(1-(oxazol-5-yl)cyclopropyl)methanone] as the compound, how does the AC50 read?
Answer: 1000 to 5000 nM

Question: Which AC50 does the source give for `CC(C)(O)C1CCN(c2ccc3c(C(=O)N4CCc5[nH]cnc5[C@@H]4c4nc5c(F)cccc5o4)cnn3c2)CC1` [Example 508, (R)-(4-(4-fluorobenzo[d]oxazol-2-yl)-6,7-dihydro-1H-imidazo[4,5-c]pyridin-5(4H)-yl)(6-(4-(2-hydroxypropan-2-yl)piperidin-1-yl)pyrazolo[1,5-a]pyridin-3-yl)methanone] here?
Answer: ≥ 5000 nM

Question: For `COc1cc(F)cc2nc([C@@H]3c4nc[nH]c4CCN3C(=O)c3oc(C(C)(C)O)nc3C(F)F)oc12` [Example 715, (S)-(4-(difluoromethyl)-2-(2-hydroxypropan-2-yl)oxazol-5-yl)(4-(5-fluoro-7-methoxybenzo[d]oxazol-2-yl)-6,7-dihydro-1H-imidazo[4,5-c]pyridin-5(4H)-yl)methanone], which AC50 is on record?
Answer: ≤ 500 nM

Question: With `O=C(c1oc(-c2ccc(F)cn2)nc1C(F)F)N1CCc2[nH]cnc2[C@@H]1c1nc2cccc(F)c2o1` [Example 631, (R)-(4-(difluoromethyl)-2-(5-fluoropyridin-2-yl)oxazol-5-yl)(4-(7-fluorobenzo[d]oxazol-2-yl)-6,7-dihydro-1H-imidazo[4,5-c]pyridin-5(4H)-yl)methanone] as the compound, how does the AC50 read?
Answer: ≤ 500 nM

Question: `O=C(CCc1nccs1)N1CCc2[nH]cnc2[C@@H]1c1nc2cccc(F)c2o1` [Example 386, 1-[(4R)-4-(7-fluoro-1,3-benzoxazol-2-yl)-1,4,6,7-tetrahydroimidazo[4,5-c]pyridin-5-yl]-3-thiazol-2-yl-propan-1-one] was tested. Which AC50 did it give?
Answer: ≥ 5000 nM

same assay, conditions: A375 cells expressing R408W PAH; 24 hrs with compound, then 20 μM sepiapterin and 800 μM 13C9,15N-Phenylalanine for 4 hours; 13C-Tyrosine by LC-MS; average where tested multiple times

Question: Which AC50 does the source give for `Cn1nc(C(C)(C)C)cc1C(=O)N1CCc2[nH]cnc2C1c1nc2cccc(F)c2o1` (stereo not shown) here?
Answer: 1000 to 5000 nM

Question: For `Cn1cncc1-c1nnc(C(=O)N2CCc3[nH]cnc3C2c2nc3c(F)ccc(F)c3o2)o1` (stereo not shown), which AC50 is on record?
Answer: 1000 to 5000 nM

Question: With `COCc1ncc(C(=O)N2CCc3[nH]cnc3C2c2nc3cc(F)ccc3o2)o1` (stereo not shown) as the compound, how does the AC50 read?
Answer: ≥ 5000 nM

Question: With `Cc1nc(-c2cnn(C)c2)oc1C(=O)N1CCc2[nH]cnc2C1c1nc2cc(F)ccc2o1` (stereo not shown) as the compound, how does the AC50 read?
Answer: 1000 to 5000 nM

Question: For `O=C(c1cnco1)N1CCc2[nH]cnc2C1c1nc2c(F)c(F)ccc2o1` (stereo not shown), which AC50 is on record?
Answer: ≥ 5000 nM

Question: With `CC(C)(C)OC(=O)N1CC(c2nnc(C(=O)N3CCc4[nH]cnc4C3c3nc4cc(F)ccc4o3)o2)C1` (stereo not shown) as the compound, how does the AC50 read?
Answer: 1000 to 5000 nM

Question: How did the AC50 turn out when `CN(C)CCOc1ccc2c(C(=O)N3CCc4[nH]cnc4C3c3nc4cc(F)ccc4o3)cnn2c1` (stereo not shown) was run?
Answer: 1000 to 5000 nM

Question: How did the AC50 turn out when `Cc1ccc2nc(C3c4nc[nH]c4CCN3C(=O)c3cnco3)oc2c1` (stereo not shown) was run?
Answer: 1000 to 5000 nM

Question: How did the AC50 turn out when `O=C(c1nnc(-c2cnn(CC(F)(F)F)c2)o1)N1CCc2[nH]cnc2C1c1nc2cc(F)ccc2o1` (stereo not shown) was run?
Answer: 1000 to 5000 nM

Question: `Cc1nc(C(C)(C)O)oc1C(=O)N1CCc2[nH]cnc2C1c1nc2ccc(F)cc2o1` (stereo not shown) was tested. Which AC50 did it give?
Answer: 1000 to 5000 nM

Question: How did the AC50 turn out when `O=C(c1cncs1)N1CCc2[nH]cnc2C1c1nc2cc(F)ccc2o1` (stereo not shown) was run?
Answer: ≥ 5000 nM

Question: Which AC50 does the source give for `O=C(c1nnc(-c2c[nH]nc2C(F)(F)F)o1)N1CCc2[nH]cnc2C1c1nc2cc(F)ccc2o1` (stereo not shown) here?
Answer: ≥ 5000 nM

Question: `Cn1nc(C(F)F)nc1C(=O)N1CCc2[nH]cnc2C1c1nc2ccc(F)cc2o1` (stereo not shown) was tested. Which AC50 did it give?
Answer: 1000 to 5000 nM
